According to PubChem BioAssay AID1645864 (Buhrlage Lab, Dana-Farber Cancer Institute and Novartis …, 2021):
Calls of active or inactive are those of the source.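 Rule for the calls: active = maximal inhibition of USP17 at or above 30% in the confirmation dose-response, a value not among the printed readouts; inactive = the rest.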

Molecular target: Ubiquitin carboxyl-terminal hydrolase 17-like protein 5 (Homo sapiens) (UniProt A8MUK1)
Test: ubiquitin-specific protease 17 DUB inhibitors, concentration-effect assay, cell-free, verification of initial screening actives (AID 1645864)
Conditions: purified USP17, ubiquitin-rhodamine cleavage fluorescence, 3 h

Chain of Ubiquitin carboxyl-terminal hydrolase 17-like protein 5 (Homo sapiens) (A8MUK1 whole entry, looked up): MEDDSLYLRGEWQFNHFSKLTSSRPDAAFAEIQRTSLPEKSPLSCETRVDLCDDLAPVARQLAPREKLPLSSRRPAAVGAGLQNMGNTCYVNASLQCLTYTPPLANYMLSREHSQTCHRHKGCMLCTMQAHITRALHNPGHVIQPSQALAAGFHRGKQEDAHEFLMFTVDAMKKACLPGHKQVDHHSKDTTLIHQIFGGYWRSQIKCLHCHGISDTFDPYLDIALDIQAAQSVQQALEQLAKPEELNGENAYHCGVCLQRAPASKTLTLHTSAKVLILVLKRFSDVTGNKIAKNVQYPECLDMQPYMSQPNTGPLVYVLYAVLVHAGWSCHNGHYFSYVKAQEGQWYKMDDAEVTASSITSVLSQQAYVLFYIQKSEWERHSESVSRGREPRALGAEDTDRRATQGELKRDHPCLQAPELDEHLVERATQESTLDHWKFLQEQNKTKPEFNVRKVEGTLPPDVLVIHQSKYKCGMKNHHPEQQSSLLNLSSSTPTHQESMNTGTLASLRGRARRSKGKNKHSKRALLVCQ

SMILES | IC50
Cc1cc(C(=O)Nc2ccc3c(c2)OCCO3)no1 | > 50 µM (inactive)
Cc1ccc2[nH]c(=O)c(-c3nc4ccc(C)cn4c3NCc3ccc(F)cc3)cc2c1 | 1.98 µM
CCc1cc2c(=O)[nH]c(Cc3ccc(OC)cc3)nc2s1 | 22.5 µM
COc1cc(C)c2c(=O)c3c(oc2c1)C(=O)c1c(O)c(OC)cc(O)c1C3=O | 0.609 µM
Cc1ccc2c(c1)N=C(c1ccc([N+](=O)[O-])cc1)CO2 | > 50 µM (inactive)
Cc1nnc(C(=O)Nc2ccc(C(=O)NCc3ccccc3C)cc2)s1 | 27.2 µM
CC1CCc2c(sc3ncnc(NC4CCN(CC(N)=O)CC4)c23)C1 (stereo not given) | > 50 µM (inactive)
Cc1ccccc1Cc1nc(-c2ccc(=O)[nH]c2)no1 | > 50 µM (inactive)
Cc1ccccc1NC(=O)Cn1c(N2CCOCC2)nc2cc(C)n(C)c2c1=O | 25.8 µM
COc1ccc(-c2cc(C(=O)NC3CCCCCC3)[nH]n2)cc1S(=O)(=O)N(C)C | 44.5 µM
CCCn1cc(C(=O)N2CCC3(CC2)CC2(CO3)Nc3ccccc3-n3cccc32)c(C)n1 (stereo not given) | 27.6 µM
O=C(NCc1ccc(F)cc1)c1cc(-n2cnnn2)ccc1Cl | 25.4 µM
O=C(Nc1cccc(S(=O)(=O)N2CCCC2)c1)c1ccc2c(=O)n3c(nc2c1)CCCCC3 | > 50 µM (inactive)
O=c1c(NCCCN2CCCC2)nc2ccncc2n1Cc1ccccc1 | 29.3 µM
Nc1ccccc1SC(CC(=O)c1ccc(Cl)cc1)c1ccsc1 (stereo not given) | > 50 µM (inactive)
COc1cc(COc2ccc3c(C)c(CC(=O)N4CC[C@@]5(O)CCCC[C@H]5C4)c(=O)oc3c2C)cc(OC)c1OC | 38.9 µM
O=C(NCc1cccnc1)c1cnn2c(C(F)(F)F)cc(-c3ccccc3)nc12 | > 50 µM (inactive)
O=C(NCCN1CCCC1)C1CCN(c2cnc(N3CCCCC3)nc2)CC1 | > 50 µM (inactive)
CC(=O)Nc1ccc(S(=O)(=O)Nc2ccc(Nc3ccc(-n4cccn4)nn3)cc2)cc1 | 24.2 µM
COc1cc([C@@H]2c3cc4c(cc3C[C@@H]3COC(=O)[C@H]32)OCO4)cc(OC)c1OC | 17.3 µM
C=C(NC(=O)C(=C)NC(=O)c1csc(-c2ccc3c(n2)-c2csc(n2)-c2csc(n2)C(C(C)C2CO2)NC(=O)C(Cc2ccc(O)cc2)NC(=O)c2csc(n2)C(C(O)c2ccccc2)NC(=O)c2nc(sc2C)C(CC(N)=O)NC(=O)c2csc-3n2)n1)C(=O)O (stereo not given) | 26.7 µM
Cc1cc(O)cc2cc3c(c(O)c12)C(=O)CCC3O (stereo not given) | > 50 µM (inactive)
CCn1c(COc2cccc(C(F)(F)F)c2)nnc1SCc1ccc(Cl)cc1 | 43.4 µM

SMILES | IC50
COc1ccc(C(=O)Nc2cc(F)c3nc(N4CCOCC4)ccc3c2)c(OC)c1 | 33.9 µM
COc1cnc(-c2ccccn2)nc1Sc1ccc(C)cc1 | > 50 µM (inactive)
COc1cccc(CC(=O)Nc2cc(F)c3nc(N4CCOCC4)ccc3c2)c1 | > 50 µM (inactive)
Cc1nn(-c2ccc(Cl)cc2)c2[nH]c(=O)c(CNCC3CCCO3)cc12 (stereo not given) | > 50 µM (inactive)
CCn1cc2c(n1)c(=O)n(Cc1ccc(C)cc1)c(=O)n2CC(=O)Nc1ccc(F)cc1 | 4.06 µM
O=c1c2c(ccn1Cc1cc(F)ccc1F)ccn2Cc1cccnc1 | > 50 µM (inactive)
C=C1CCC2[C@](C)(CCC[C@]2(C)C(=O)OC)[C@H]1CCc1ccoc1/C=C/C(=O)O (stereo not given in full) | 32.5 µM
Cc1cccc(-n2cnc(C(=O)NCc3ccc(F)cc3)c2)n1 | 22.8 µM
O=C(COc1cccc2ccc(N3CCC(Cc4ccccc4)CC3)nc12)NCc1ccc(F)cc1 | 21.1 µM
COc1ccc(CNC(=O)C(C)n2nc(-c3ccco3)c(-c3cc(C)no3)cc2=O)cc1 (stereo not given) | 25.1 µM
CCOC(=O)c1ccc(-n2c(=O)c(C#N)cc3c(=O)n4ccccc4nc32)cc1 | > 50 µM (inactive)
CCS(=O)(=O)N1CCc2cc(C(=O)Nc3ccc4c(c3)OCCO4)ccc21 | > 50 µM (inactive)
N#Cc1c(Cl)cccc1Oc1ccc(S(=O)(=O)N2CCC(O)CC2)cc1 | 27.4 µM
COc1cc(OC)cc(-c2nc(-c3cn(-c4cccc(F)c4)nn3)no2)c1 | 0.13 µM
Cc1ccc(Cl)cc1NC(=O)c1cc(-c2ccccn2)n[nH]1 | 7.13 µM
COc1cnc(-c2ccccn2)nc1Sc1ccccc1Cl | 16.2 µM
Cc1nn(-c2ccc([N+](=O)[O-])cc2)c(C)c1-c1nc2ccccc2[nH]1 | 33 µM
CCOC(=O)c1ccc(NC(=O)C[n+]2cc(-c3ccc(Cl)cc3)n3c2CCC3)cc1 | > 50 µM (inactive)
Cc1cccc(C(=O)OCC(=O)Nc2ccc3[nH]c(=O)[nH]c3c2)c1C | 4.32 µM
Cc1ccc2c(c1C)NC(=O)[C@]21[C@@H]2C(=O)N(c3cccc(Cl)c3)C(=O)[C@@H]2[C@@H]2CCCN21 | > 50 µM (inactive)
Cc1cc(C)n2nc(CNc3cccc(Cl)c3)nc2n1 | > 50 µM (inactive)
CCc1ccc(NC(=O)CN=C2NS(=O)(=O)C(c3ccc(CC)cc3)=C2C)cc1 | 32.5 µM
COc1c(Cl)ccc2c(=O)c3c(O)c4c5c(c3oc12)OCO[C@H]5[C@@H](OC)c1cc2c(c(O)c1-4)C(=O)N(C)[C@H](OC)[C@@H]2O | > 50 µM (inactive)

Results, then the molecule that gave them:

IC50 | SMILES
6.42 µM | COc1ccc2nc(SCC(=O)Nc3ccc(NC(C)=O)cc3)c(C)cc2c1
2.51 µM | O=C(Nc1ccc2c(c1)OCCO2)c1cccc2nc3ccccc3nc12
34.1 µM | O=C(CN1C(=O)c2ccccc2Sc2ccc(C(=O)N3CCCC3)cc21)Nc1ccccc1Cl
> 50 µM (inactive) | CSc1ccc(CNCc2c(C(=O)O)n(Cc3ccccc3)c3cc(C)ccc23)cc1
> 50 µM (inactive) | CCn1c(CNc2ccc(Cl)cc2)nnc1SCC(=O)Nc1ccccc1
42.5 µM | CCOc1ccc(-n2c(SCC(=O)N3CC(=O)Nc4ccccc43)nnc2-c2ccc(OC)cc2)cc1
> 50 µM (inactive) | Cc1ccc(NC(=O)c2nnn(-c3ccccc3)n2)cc1F
1.87 µM | O=C(COc1ccccc1-c1nnc(-c2ccccc2)o1)Nc1ccc(F)cc1F
38.6 µM | COc1cccc(C(=O)NCC(=O)Nc2nc3ccccc3[nH]2)c1
31 µM | CCc1ccccc1NC(=O)c1cc(-c2ccccn2)n[nH]1
21.8 µM | O=C(NCc1ccccc1)c1ccc2c(=O)n(-c3ccccc3)c(=O)[nH]c2c1
0.577 µM | O=C(Nc1ccc(-c2cn3ccccc3n2)cc1)C1C=C2C=C(Br)C=CC2OC1=O (stereo not given)
32 µM | Cc1ccc2c(c1)[C@]1(C(=O)N2)[C@@H](C(=O)c2ccccc2)[C@]2(C(=O)Nc3ccccc32)[C@@H]2CCCN21
26.7 µM | Cc1ccc(CN2C(=O)c3cc4ccccc4n3CC2(C)C(=O)NCc2ccccc2)o1 (stereo not given)
> 50 µM (inactive) | O=C1COc2ccccc2N1Cc1noc(-c2ccccc2)n1
2.65 µM | COc1ccc(CNC(=O)CCc2nnc3n(Cc4ccccc4Cl)c(=O)c4ccccc4n23)cc1
8.42 µM | Cc1ccccc1NC(=O)c1nc(-c2cn(Cc3ccc(F)cc3)nn2)no1
> 50 µM (inactive) | Cc1ccc(C2c3cccn3CCN2C(=O)Nc2ccccc2)cc1 (stereo not given)
> 50 µM (inactive) | CCOc1ccc(NC(=O)COc2cccc(-n3cnnn3)c2)cc1
> 50 µM (inactive) | O=C(c1cc2ccccc2o1)N1CC=C(c2ccccc2)CC1
27.7 µM | COc1cccc(NC(=O)C2Cc3ccccc3N2C(=O)c2ccccc2)c1 (stereo not given)
29.9 µM | COc1ccccc1NC(=O)c1cc2c(C)nn(Cc3ccccc3)c2s1
> 50 µM (inactive) | COc1ccc(C2C(C(=O)C(C)(C)C)N3c4ccccc4C=CC3C23C(=O)c2ccccc2C3=O)c(OC)c1 (stereo not given)
16.5 µM | O=C(Nc1ccccc1Br)c1ccn(COc2ccccc2F)n1
